{"source": "patent US7744860B2", "about": "“Reduced bioirritant composition” (Minu LLC, priority 1999, dated 2010)", "key": {"[1]": {"tested_on": "corneal neovascularization", "assay": "silver nitrate cauterization induced corneal neovascularization, topical treatment", "format": "in vivo, male Long Evans pigmented rats", "settings": "for Degree of Corneal Neovascularization, OD / Degree of Corneal Neovascularization, OS / mean inhibition of neovascularization / mean percent of neovascularization relative to total corneal area: topical twice a day for seven days; for Degree of Corneal Neovascularization, OD / Degree of Corneal Neovascularization, OS: individual subjects", "procedure": "Neovascularization was induced in all eyes using silver nitrate cauterization. The animals were first anesthetized by intraperitoneal injection of a mixture of ketamine hydrochloride (25 mg/kg) with xylazine hydrochloride (5 mg/kg). The cornea was then anesthetized by a drop of 0.5% proparacaine hydrochloride and allowed to dry. One cornea of each animal was cauterized by pressing an applicator stick (diameter of 1.8 mm) coated with 75% silver nitrate/25% potassium nitrate (Arzol Chemical Co., Keen, N.H.) to the central cornea for ten seconds (using a stopwatch) under the operating microscope. Excess silver nitrate was removed by rinsing the eyes with 5 ml balanced salt solution. To increase the reproducibility of the injuries, one investigator cauterized all animals. Following cauterization, the animals were randomly divided into six groups to eliminate any potential bias in the degree of burns within the different groups. Two drops of each drug were applied topically to each cornea immediately following cauterization; treatments were administered two times per day for seven days.\nGroup 1 (number of animals (n)=8) received 100 mg/ml pH non-neutralized ascorbic acid. All remaining experimental groups received ascorbic acid neutralized to about pH 7 as previously described in the following concentrations: Group 2 (n=8) received 100 mg/ml (10%^w/v) neutralized ascorbic acid; Group 3 (n=8) received 50 mg/ml (5%^w/v) neutralized ascorbic acid; Group 4 (n=8) received 10 mg/ml (1%^w/v) neutralized ascorbic acid; Group 5 (n=8) received 5 mg/ml neutralized ascorbic acid (0.5%^w/v); Group 6 (n=8) received 1 mg/ml neutralized ascorbic acid (0.1%^w/v); Group 7 (n=8) received 500 μg/ml neutralized ascorbic acid (0.05%^w/v); Group 8 (n=8) received 250 μg/ml neutralized ascorbic acid (0.025%^w/v). Group 9 (n=8) received two drops of saline and served as the control. All concentrations of ascorbic acid were titrated with saline.\nThe presence of new vessels (neovascularization) and the extent of new vessel formation was assessed by slit lamp photography and in some embodiments, by histology. Inhibition of vessel proliferation was evaluated by measuring vessel progression from the outer cornea (corneal limbus) into the cornea. As previously described, it will be appreciated that any reduction of new vessel proliferation and/or regression of existing vessels is therapeutic, and that complete inhibition and/or regression is not required, and also that reduction includes regression of existing vessels.\nAll animals were anesthetized as described above and their corneas evaluated by slit-lamp microscopy on the third and sixth days. Corneal photographs were taken with ×25 magnification using a camera attached to the slit-lamp microscope (Topcon SL-7E, Tokyo Japan) on the seventh day. Neovascularization was evaluated by an examiner who was blinded as to the treatment groups to minimize the observer bias.\nCorneal neovascularization was assessed by scanning (Cano scan 9900F, Canon, Tokyo Japan) the slit lamp photographs into high resolution digital images. The corneal surface covered with neovascular vessels was measured on the photographs as the percentage of the total area of the cornea. The percentage area of corneal neovascularization was determined by outlining the areas with corneal vessels and comparing these to the total corneal surface using image j software (Wayne Rasband at the Research Services Branch,-National Institute of Mental Health, Bethesda Md.). The area of neovascularization was measured in terms of pixels and its ratio to the entire corneal area was determined as the percentage of corneal neovascularization. The extent of the scar was also evaluated by calculating the percentage of the corneal surface that was covered by the scar. A drawing of corneal blood vessels was made to compare with digital photos and ensure that no vascular area was omitted during calculation of percent area. […]"}, "[2]": {"assay": "electroretinogram (ERG) after ascorbic acid administration", "format": "in vivo, Rats", "procedure": "The effect of pH neutralized and non-neutralized ascorbic acid administered topically to eyes at various concentrations was determined. Rats were subject to induced corneal neovascularization as previously described and administered pH neutralized and non-neutralized ascorbic acid and saline (control) at the same concentrations as previously described. An electroretinogram (ERG) was performed to evaluate the eye's electrical responses to a flash of light using an electrode placed on the surface of the eye (e.g., cornea) as known to one skilled in the art."}, "[3]": {"settings": "100 mg/ml, mean ± standard deviation, n = 8"}, "[4]": {"settings": "100 mg/ml, listed as pH neutralized ascorbic acid"}}, "note": "Where “and” joins values, the source holds several entries; their conditions need not be identical. Equal values may be shown once. Entries after “also recorded” stand apart in the source; their conditions may differ.", "data": [{"compound": "O=C1O[C@H]([C@@H](O)CO)C(O)=C1O", "note": "[Ascorbic Acid Non pH Neutralized, ascorbic acid, reference compound]", "values": [{"measurement": "Degree of Corneal Neovascularization, OD", "setting": "[1]; 100 mg (100 mg/ml)", "result": "10% and 25% and 20% and 0%"}, {"measurement": "Degree of Corneal Neovascularization, OS", "setting": "[1]; 100 mg (100 mg/ml)", "result": "33% and 30% and 22% and 0%"}, {"measurement": "mean inhibition of neovascularization", "setting": "[1]; 100 mg/ml", "result": "about 81%"}, {"measurement": "mean percent of neovascularization relative to total corneal area", "setting": "[1]; [3]", "result": "AVE = 17.5 ± 12.8% (n = 8)"}, {"measurement": "mean percent of neovascularization relative to total corneal area", "setting": "[1]; 100 mg/ml, mean ± standard deviation, n = 8, listed as ascorbic acid non-pH neutralized", "result": "about 19%"}, {"measurement": "mean percent of neovascularization relative to total corneal area", "setting": "[1]; 100 mg/ml, mean ± standard deviation, n = 8, listed as non-neutralized ascorbic acid", "result": 17.5, "unit": "%"}, {"measurement": "mean inhibition of neovascularization", "setting": "[1]; 100 mg/ml, listed as non-neutralized ascorbic acid", "result": 82.5, "unit": "%"}, {"measurement": "decrease in ERG", "setting": "[2]; 1 mg/ml, n=6", "result": "no significant decrease in ERG"}, {"measurement": "decrease in ERG", "setting": "[2]; 10 mg/ml, n=6", "result": "no significant decrease in ERG"}, {"measurement": "decrease in ERG", "setting": "[2]; 100 mg/ml, two eyes, listed as non-pH neutralized ascorbic acid", "result": "60% and 70%"}, {"measurement": "ocular findings (retinal detachment, cataracts, vitreous haze, retinal edema)", "setting": "[2]; 100 mg/ml, listed as non-pH neutralized ascorbic acid", "result": "partial retinal detachment"}]}, {"compound": "O=C1O[C@H]([C@@H](O)CO)C(O)=C1O", "note": "[Ascorbic Acid pH Neutralized, ascorbic acid]", "values": [{"measurement": "Degree of Corneal Neovascularization, OD", "setting": "[1]; 250 μg (250 μg/ml)", "result": "68% and 69% and 70% and 61%"}, {"measurement": "Degree of Corneal Neovascularization, OS", "setting": "[1]; 250 μg (250 μg/ml)", "result": "65% and 63% and 66% and 48%"}, {"measurement": "mean inhibition of neovascularization", "setting": "[1]; 250 μg/ml", "result": "about 33%"}, {"measurement": "mean percent of neovascularization relative to total corneal area", "setting": "[1]; 250 μg/ml, FIG. 2", "result": "about 67%"}, {"measurement": "mean inhibition of neovascularization", "setting": "[1]; 250 μg/ml, listed as neutralized ascorbic acid", "result": "differences were not significant"}, {"measurement": "Degree of Corneal Neovascularization, OD", "setting": "[1]; 500 μg (500 μg/ml)", "result": "54% and 69% and 70% and 61%"}, {"measurement": "Degree of Corneal Neovascularization, OS", "setting": "[1]; 500 μg (500 μg/ml)", "result": "50% and 63% and 66% and 48%"}, {"measurement": "mean inhibition of neovascularization", "setting": "[1]; 500 μg/ml", "result": "about 40%"}, {"measurement": "mean percent of neovascularization relative to total corneal area", "setting": "[1]; 500 μg/ml, mean ± standard deviation, n = 8", "result": "mean = 60.1 ± 8.5% (n = 8)"}, {"measurement": "mean percent of neovascularization relative to total corneal area", "setting": "[1]; 500 μg/ml, mean ± standard deviation, n = 8, listed as ascorbic acid pH neutralized", "result": "about 60%"}, {"measurement": "mean percent of neovascularization relative to total corneal area", "setting": "[1]; 500 μg/ml, mean ± standard deviation, n = 8, listed as neutralized ascorbic acid", "result": 60.1, "unit": "%"}, {"measurement": "mean inhibition of neovascularization", "setting": "[1]; 500 μg/ml, listed as neutralized ascorbic acid", "result": 39.9, "unit": "%"}, {"measurement": "Degree of Corneal Neovascularization, OD", "setting": "[1]; 1 mg (1 mg/ml)", "result": "49% and 15% and 48% and 5%"}, {"measurement": "Degree of Corneal Neovascularization, OS", "setting": "[1]; 1 mg (1 mg/ml)", "result": "47% and 27% and 29% and 17%"}, {"measurement": "mean inhibition of neovascularization", "setting": "[1]; 1 mg/ml", "result": "about 69%"}, {"measurement": "mean percent of neovascularization relative to total corneal area", "setting": "[1]; 1 mg/ml, mean ± standard deviation", "result": "mean = 29.6 ± 16.9%"}, {"measurement": "mean percent of neovascularization relative to total corneal area", "setting": "[1]; 1 mg/ml, mean ± standard deviation, listed as ascorbic acid pH neutralized", "result": "about 31%"}, {"measurement": "mean inhibition of neovascularization", "setting": "[1]; 1 mg/ml, listed as neutralized ascorbic acid", "result": "significant inhibition compared to control eyes"}, {"measurement": "Degree of Corneal Neovascularization, OD", "setting": "[1]; 5 mg (5 mg/ml)", "result": "20% and 35% and 0% and 60%"}, {"measurement": "Degree of Corneal Neovascularization, OS", "setting": "[1]; 5 mg (5 mg/ml)", "result": "60% and 26% and 30% and 0%"}, {"measurement": "mean inhibition of neovascularization", "setting": "[1]; 5 mg/ml", "result": "about 70%"}, {"measurement": "mean percent of neovascularization relative to total corneal area", "setting": "[1]; 5 mg/ml, mean ± standard deviation, n = 8", "result": "mean = 28.9 ± 23.1% (n = 8)"}, {"measurement": "mean percent of neovascularization relative to total corneal area", "setting": "[1]; 5 mg/ml, mean ± standard deviation, n = 8, listed as ascorbic acid pH neutralized", "result": "about 30%"}, {"measurement": "mean inhibition of neovascularization", "setting": "[1]; 5 mg/ml, listed as neutralized ascorbic acid", "result": "significant inhibition compared to control eyes"}, {"measurement": "Degree of Corneal Neovascularization, OD", "setting": "[1]; 10 mg (10 mg/ml)", "result": "0% and 31% and 20% and 22%"}, {"measurement": "Degree of Corneal Neovascularization, OS", "setting": "[1]; 10 mg (10 mg/ml)", "result": "0% and 27% and 15% and 26%"}, {"measurement": "mean inhibition of neovascularization", "setting": "[1]; 10 mg/ml", "result": "about 81%"}, {"measurement": "mean percent of neovascularization relative to total corneal area", "setting": "[1]; 10 mg/ml, mean ± standard deviation, n = 8", "result": "mean = 17.6 ± 11.9% (n = 8)"}, {"measurement": "mean percent of neovascularization relative to total corneal area", "setting": "[1]; 10 mg/ml, mean ± standard deviation, n = 8, listed as ascorbic acid pH neutralized", "result": "about 19%"}, {"measurement": "mean inhibition of neovascularization", "setting": "[1]; 10 mg/ml, listed as neutralized ascorbic acid", "result": "significant inhibition compared to control eyes"}, {"measurement": "Degree of Corneal Neovascularization, OD", "setting": "[1]; 50 mg (50 mg/ml)", "result": "10% and 15% and 32% and 3%"}, {"measurement": "Degree of Corneal Neovascularization, OS", "setting": "[1]; 50 mg (50 mg/ml)", "result": "5% and 35% and 22% and 0%"}, {"measurement": "mean inhibition of neovascularization", "setting": "[1]; 50 mg/ml", "result": "about 83.5%"}, {"measurement": "mean percent of neovascularization relative to total corneal area", "setting": "[1]; 50 mg/ml, mean ± standard deviation, n = 8", "result": "mean = 15.2 ± 13.3% (n = 8)"}, {"measurement": "mean percent of neovascularization relative to total corneal area", "setting": "[1]; 50 mg/ml, mean ± standard deviation, n = 8, listed as ascorbic acid pH neutralized", "result": "about 16.5%"}, {"measurement": "mean inhibition of neovascularization", "setting": "[1]; 50 mg/ml, listed as neutralized ascorbic acid", "result": "significant inhibition compared to control eyes"}, {"measurement": "Degree of Corneal Neovascularization, OD", "setting": "[1]; 100 mg (100 mg/ml)", "result": "0% and 31% and 15% and 28%"}, {"measurement": "Degree of Corneal Neovascularization, OS", "setting": "[1]; 100 mg (100 mg/ml)", "result": "54% and 5% and 3% and 0%"}, {"measurement": "mean inhibition of neovascularization", "setting": "[1]; 100 mg/ml", "result": "about 82%"}, {"measurement": "mean percent of neovascularization relative to total corneal area", "setting": "[1]; [3]", "result": "AVE = 17.0 ± 19.3% (n = 8)"}, {"measurement": "mean percent of neovascularization relative to total corneal area", "setting": "[1]; 100 mg/ml, mean ± standard deviation, n = 8, listed as ascorbic acid pH neutralized", "result": "about 18%"}, {"measurement": "mean percent of neovascularization relative to total corneal area", "setting": "[1]; 100 mg/ml, mean ± standard deviation, n = 8, listed as pH neutralized ascorbic acid", "result": 17.0, "unit": "%"}, {"measurement": "mean inhibition of neovascularization", "setting": "[1]; [4]", "result": 83.0, "unit": "%"}, {"measurement": "inhibition of corneal neovascularization", "setting": "[1]; concentrations ranging from 100 mg/ml to 500 μg/ml", "result": "significantly inhibited corneal neovascularization"}, {"measurement": "decrease in ERG", "setting": "[2]; 1 mg/ml, n=6", "result": "no significant decrease in ERG"}, {"measurement": "decrease in ERG", "setting": "[2]; 10 mg/ml, n=6", "result": "no significant decrease in ERG"}, {"measurement": "decrease in ERG", "setting": "[2]; 100 mg/ml, two eyes, listed as pH neutralized ascorbic acid", "result": 100, "unit": "%"}, {"measurement": "ocular findings (retinal detachment, cataracts, vitreous haze, retinal edema)", "setting": "[2]; [4]", "result": "neither cataracts nor retinal detachment; also recorded: vitreous haze and retinal edema"}]}]}
